Patent US20260373123A1, “IMPROVED TREATMENT OF CANCERS USING COMBINATIONS OF SMARCA2 DEGRADERS AND KRAS TARGETING THERAPIES” (Prelude Therapeutics Incorporated, priority 2022, published 2026)
“Also recorded” adds a separate entry of the source.

Assays:
UM-UC-3 = test: Cell proliferation assay (CellTiter-Glo), drug combination synergy by Bliss and ZIP models, UM-UC-3; format: cell-based, human; details: for synergy (anti-proliferation effects): combination of compound 1 with KRAS G12C inhibitor (MRTX849, AMG510, ARS1629 or JDQ443), UM-UC-3, SMARCA4 damaging mutation/KRAS G12C, day 7
Description: FIG. 3. […] Bladder cancer UM-UC-3 cells (SMARAC4 damaging mutation/KRAS G12C) were treated with KRAS G12C inhibitor (MRTX849, AMG510, ARS1629 or JDQ443) and with a SMARCA2 degrader (compound 1) in a different dose-range. Cell viability was analyzed on day 7 using Cell-titer Glo.
FIG. 6. Bliss and ZIP synergy scores of UM-UC-3 cells treated with a SMARCA2 degrader (compound 1) and a KRAS targeting therapy (MRTX849, AMG510, ARS1629 or JDQ443). Synergistic effect is likely where synergy scores are larger than 10.
(§1) The degree of combination synergy, or antagonism, is quantified by comparing the observed drug combination response against the expected response, calculated using a reference model that assumes no interaction between drugs. Drug synergy was determined using the Bliss and Zero interaction potency (ZIP) reference models.
(§2) The Bliss independence model assumes a stochastic process in which two drugs elicit their effects independently, and the expected combination effect can be calculated based on the probability of independent events; The ZIP model captures the drug interaction relationships by comparing the change in the potency (effect at certain dose level) of the dose-response curves between individual drugs and their combinations. ZIP assumes that two non-interacting drugs are expected to incur minimal changes in their dose-response curves. Model calculations can be found at www.ncbi.nlm.nih.gov/pmc/articles/PMC4759128/.
(§3) Cell proliferation assay: Cells were plated in 384-well white-walled, clear-bottom plates in standard tissue culture conditions. 250 cells per well of the NCI-H2030 (ATCC, CRL-5914) cell line was seeded in RPMI-1640 medium, FBS serum to a final concentration of 10%, 100 cells per well of the UM-UC-3 (ATCC, CRL-1749) cell line was seeded in EMEM medium, FBS serum to a final concentration of 10%. The day after plating, serial dilutions of two compounds were plated in dose-response matrices in quadruplicate, including DMSO controls, using a Tecan D300e Digital Dispenser (Tecan Group Ltd. Männedorf, Switzerland). All wells were normalized to highest total volume of DMSO. 7 days later the CellTiter-Glo® 2.0 Cell Viability Assay (CTG) (#G9242, Promega, Madison, WI) was used to measure cell viability effects of drug combinations. The expected drug combination responses were calculated based on Bliss and ZIP reference model using SynergyFinder (Ianevski et al, 2020). Deviations between observed and expected responses with positive and negative values denote synergy and antagonism respectively. Synergistic effect is likely where synergy scores are larger than 10. MRTX849 (Adagrasib, Catalog No. S8884) and ARS-1620 (Catalog No. S8707) were purchased from Selleck Chemicals. AMG510 (Sotorasib, Catalog No. HY-114277) and JDQ-443 (Catalog No. HY-139612) were purchased from MedChemExpress.
UC-UM-3 is a human bladder transitional cell carcinoma cancer cell line that expresses SMARCA4 damaging mutation and KRAS G12C mutation. Combination therapy was applied to UM-UC-3 cells and % viable cells was calculated (FIG. 3). Bliss and ZIP scores are larger than 10, which indicates compound 1 and KRAS G12C inhibitors will likely show synergistic effects (FIG. 6).

NCI-H2030 = test: Cell proliferation assay (CellTiter-Glo), drug combination synergy by Bliss and ZIP models, NCI-H2030; format: cell-based; details: combination of compound 1 with KRAS G12C inhibitor (MRTX849, AMG510, ARS-1620 or JDQ-443); for synergy (anti-proliferation effects): NCI-H2030, SMARCA4 low/KRAS G12C, day 7; for Bliss synergy score / ZIP synergy score: NCI-H2030, synergistic effect likely where scores larger than 10
Description: FIG. 2. […] Lung cancer NCI-H2030 cells (SMARAC4 low/KRAS G12C) were treated with KRAS G12C inhibitor (MRTX849, AMG510, ARS1629 or JDQ-443) and with a SMARCA2 degrader (compound 1) in a different dose-range. Cell viability was analyzed on day 7 using Cell-titer Glo.
FIG. 5. Bliss and ZIP synergy scores of H2030 cells treated with a SMARCA2 degrader (compound 1) and a KRAS targeting therapy (MRTX849, AMG510, ARS1629 or JDQ443). Synergistic effect is likely where synergy scores are larger than 10.
as §1, §2, §3
NCI-H2030 is a non-small cell lung cancer cell line that express low SMARCA4 and KRAS G12C mutation. Combination therapy was applied to H2030 cells and % viable cells was calculated (see FIG. 2). Bliss and ZIP scores are larger than 10, which indicates compound 1 and KRAS G12C inhibitors will likely show synergistic effects (FIG. 5).

UM-UC-3 xenograft tumors = test: Tumor volume in mice with UM-UC-3 xenograft tumors; format: in vivo; details: for tumor volume reduction (synergy): combination: compound 1 100 mg/kg s.c. Q3D and MRTX849 10 mg/kg p.o. QD, UM-UC-3
Description: FIG. 7. Plot of mean tumor volume vs. dosing time for UM-UC-3 cells treated with a SMARCA2 degrader (compound 1) and a KRAS targeting therapy (MRTX849).
(§4) The concentration of compound 1 was 100 mg/kg s.c. Q3D and the concentration of MRTX849 was 10 mg/kg p.o. QD. Statistical analysis used the two-tailed Mann-Whitney test versus vehicle, with *P<0.05, **P<0.01 and ***P<0.001.

NCI-H838 cells = test: Cell viability (Cell-titer Glo), drug combination, control line NCI-H838; format: cell-based; details: combination of compound 1 with KRAS G12C inhibitor (MRTX849 or AMG510); NCI-H838, SMARCA4 damaging mutation/KRAS WT; day 7
Description: (§5) FIG. 4. […] Lung cancer NCI-H838 cells (SMARAC4 damaging mutation/KRAS WT) or NCI-H358 cells (SMARCA4 WT/KRAS G12C) were treated with KRAS G12C inhibitor (MRTX849 or AMG510) and with a SMARCA2 degrader (compound 1) in a different dose-range. Cell viability was analyzed on day 7 using Cell-titer Glo.
as §3, with “Synergistic effect is likely where synergy scores are larger than 10. MRTX849 (Adagrasib, Catalog No. S8884) and ARS-1620 (Catalog No. S8707) were purchased from Selleck Chemicals. AMG510 (Sotorasib, Catalog No. HY-114277) and JDQ-443 (Catalog No. HY-139612) were purchased from MedChemExpress.” left out

H2030 xenograft tumors = test: Tumor volume in mice with H2030 xenograft tumors; format: in vivo; details: for tumor volume reduction (synergy): combination: compound 1 100 mg/kg s.c. Q3D and MRTX849 10 mg/kg p.o. QD, H2030
Description: FIG. 8. Plot of mean tumor volume vs. dosing time for H2030 cells treated with a SMARCA2 degrader (compound 1) and a KRAS targeting therapy (MRTX849).
as §4

NCI-H358 cells = test: Cell viability (Cell-titer Glo), drug combination, control line NCI-H358; format: cell-based; details: combination of compound 1 with KRAS G12C inhibitor (MRTX849 or AMG510); NCI-H358, SMARCA4 WT/KRAS G12C; day 7
Description: as §5
as §3, with “Synergistic effect is likely where synergy scores are larger than 10. MRTX849 (Adagrasib, Catalog No. S8884) and ARS-1620 (Catalog No. S8707) were purchased from Selleck Chemicals. AMG510 (Sotorasib, Catalog No. HY-114277) and JDQ-443 (Catalog No. HY-139612) were purchased from MedChemExpress.” left out

[1] = combination of compound 1 with KRAS G12C inhibitors, UM-UC-3, synergistic effect likely where scores larger than 10

## C=CC(=O)N1CCN(c2nc(=O)n(-c3c(C)ccnc3C(C)C)c3nc(-c4c(O)cccc4F)c(F)cc23)[C@@H](C)C1 (atropisomer, axis not shown) [JDQ-443]
UM-UC-3
  synergy (anti-proliferation effects): synergistic anti-proliferation effects
NCI-H2030
  synergy (anti-proliferation effects): synergistic anti-proliferation effects; also recorded: Excellent synergy
  Bliss synergy score: > 10
  ZIP synergy score: > 10

## C=CC(=O)N1CCN(c2ncnc3c(F)c(-c4c(O)cccc4F)c(Cl)cc23)CC1 [ARS-1620]
UM-UC-3
  synergy (anti-proliferation effects): synergistic anti-proliferation effects
NCI-H2030
  synergy (anti-proliferation effects): Excellent synergy
  Bliss synergy score: > 10
  ZIP synergy score: > 10
NCI-H2030; listed as ARS1629
  synergy (anti-proliferation effects): synergistic anti-proliferation effects

## Cc1ncsc1-c1ccc([C@H](C)NC(=O)[C@@H]2C[C@@H](O)CN2C(=O)[C@@H](c2cc(O[C@@H](C)CN3CC[C@@H](N4CCN5c6cc(-c7ccccc7O)nnc6NC[C@H]5C4)C3)no2)C(C)C)cc1 [Compound 1]
UM-UC-3 xenograft tumors; combination of compound 1 and a KRAS targeting therapy, mice with UM-UC-3 xenograft tumors
  enlargement of tumor volumes: can slow down the enlargement of tumor volumes
UM-UC-3 xenograft tumors
  tumor volume reduction (synergy): synergistic effects for tumor volume reduction
NCI-H838 cells
  synergistic effects (cell viability): do not show synergistic effects
UM-UC-3
  synergy (anti-proliferation effects): synergistic anti-proliferation effects; also recorded: Excellent synergy; also recorded: potent synergistic interaction
UM-UC-3; [1]
  Bliss synergy score: > 10
  ZIP synergy score: > 10
H2030 xenograft tumors; combination of compound 1 and a KRAS targeting therapy, mice with H2030 xenograft tumors
  enlargement of tumor volumes: can slow down the enlargement of tumor volumes
H2030 xenograft tumors
  tumor volume reduction (synergy): synergistic effects for tumor volume reduction
NCI-H2030
  synergy (anti-proliferation effects): synergistic anti-proliferation effects; also recorded: Excellent synergy; also recorded: potent synergistic interaction
  Bliss synergy score: > 10
  ZIP synergy score: > 10
NCI-H358 cells
  synergistic effects (cell viability): do not show synergistic effects

## C=C(F)C(=O)N1CCN(c2nc(OC[C@@H]3CCCN3C)nc3c2CCN(c2cccc4cccc(Cl)c24)C3)C[C@@H]1CC#N [MRTX849, adagrasib]
UM-UC-3 xenograft tumors
  tumor volume reduction (synergy): synergistic effects for tumor volume reduction
NCI-H838 cells
  synergistic effects (cell viability): do not show synergistic effects
UM-UC-3
  synergy (anti-proliferation effects): synergistic anti-proliferation effects
H2030 xenograft tumors
  tumor volume reduction (synergy): synergistic effects for tumor volume reduction
NCI-H2030
  synergy (anti-proliferation effects): synergistic anti-proliferation effects; also recorded: Excellent synergy
  Bliss synergy score: > 10
  ZIP synergy score: > 10
NCI-H358 cells
  synergistic effects (cell viability): do not show synergistic effects
